Values of other authors, collected in patent publication US4868155A, “Dipeptidyl 4-0-,6-0-acyl-2-amino-2-deoxy-D-glucose compositions and methods of use in AIDS-immunocompromised human hosts” (Merck & Co., Inc., priority 1987, dated 1989).
Like-named read-outs stand apart in the source and are kept apart here.

Tests used:
[1] = system: Mycobacterium avium intracellulare; conditions: AIDS patients infected with Mycobacterium avium intracellulare
[2] = in vivo
AIDS related virus = conditions: for clinical benefit (symptoms, immune function) in AIDS / ARC patients: clinical trials; for virus replication in humans: patients
[3] = system: reverse transcriptase in several retroviruses; conditions: in vitro

Molecule: CO[C@H]1/C=C/O[C@@]2(C)Oc3c(C)c(O)c4c(c3C2=O)C2=NC3(CCN(CC(C)C)CC3)NC2=C(NC(=O)/C(C)=C\C=C\[C@H](C)[C@H](O)[C@@H](C)[C@@H](O)[C@@H](C)[C@H](OC(C)=O)[C@@H]1C)C4=O [Ansamycin, rifabutin]
- efficacy against opportunistic infection [1]: some efficacy

Molecule: Cc1cn([C@H]2C[C@H](N=[N+]=[N-])[C@@H](CO)O2)c(=O)[nH]c1=O [Azidothymidine, 3' azido 3'-deoxythymidine]
- oral absorption [2]: Well absorbed orally

Molecule: CC(C)(N1CC1C#N)N1CC1C(N)=O (stereo not shown) [Azimexon]
- clinical benefit (symptoms, immune function) in AIDS / ARC patients (AIDS related virus): improvements in symptoms and immune function in patients with ARC but not AIDS
- toxicity / side effects (patients): mild hemolysis

Molecule: CC(C)(S)[C@@H](N)C(=O)O [D Penicillamine, 3-mercapto D valine]
- virus replication in humans (AIDS related virus): Inhibits HIV reproduction in humans
- T cell levels (13 AIDS patients with perpetually swollen glands): temporarily depressed T cell levels

Molecule: O=C(O)P(=O)(O)O [Foscarnet, trisodium phosphonoformate]
- toxicity / side effects (human, in vivo): serious side effects

Molecule: CC(=O)Nc1ccc(C(=O)O)cc1.CC(=O)Nc1ccc(C(=O)O)cc1.CC(=O)Nc1ccc(C(=O)O)cc1.CC(O)CN(C)C.CC(O)CN(C)C.CC(O)CN(C)C.O=c1[nH]cnc2c1ncn2[C@@H]1O[C@H](CO)[C@@H](O)[C@H]1O [Inosine granobex]
- clinical benefit (symptoms, immune function) in AIDS / ARC patients (AIDS related virus): improve immune function in ARC patients

Molecule: NC(=O)c1ncn([C@@H]2O[C@H](CO)[C@@H](O)[C@H]2O)n1 [Ribavirin, 1 8 D ribofuranosyl-1,2,4-triazole-3-carboxamide]
- clinical benefit (symptoms, immune function) in AIDS / ARC patients (AIDS related virus): improved immune function
- virus replication in humans (AIDS related virus): inhibited viral replication
- safety profile (human, in vivo): acceptable

Molecule: Cc1ccc(C(=O)Nc2ccc(S(=O)(=O)O)c3cc(S(=O)(=O)O)cc(S(=O)(=O)O)c23)cc1NC(=O)c1cccc(NC(=O)Nc2cccc(C(=O)Nc3cc(C(=O)Nc4ccc(S(=O)(=O)O)c5cc(S(=O)(=O)O)cc(S(=O)(=O)O)c45)ccc3C)c2)c1 [Suramin]
- clinical benefit (symptoms, immune function) in AIDS / ARC patients (AIDS related virus): little or no evidence of clinical improvement or immunologic recovery

Molecule: ammonium 21 tungsto 9 antimoniate [HPA-23]
- growth of HIV (HIV): some tendency to check the growth of HIV
- inhibition of reverse transcriptase in several retroviruses [3]: Inhibits reverse transcriptase in several retroviruses in vitro
- clinical benefit (symptoms, immune function) in AIDS / ARC patients (AIDS related virus): no therapeutic benefit

Molecule: α-Interferon
- tumor regression in AIDS-related Kaposi's sarcoma (AIDS related virus; AIDS-related Kaposi's sarcoma cases): induced tumor regression in some AIDS-related Kaposi's sarcoma cases
